Source: ChEMBL document CHEMBL1148914, “Cadinane sesquiterpenes from the brown alga Dictyopteris divaricata” (J Nat Prod, 2004)

Tests used:
Type in all cases: functional, cell-based
[1] = test system: A549; assay: Cytotoxicity against human A549 cells by MTT assay
[2] = test system: BGC-823; assay: Cytotoxicity against human BGC823 cells by MTT assay
[3] = test system: MCF7; assay: Cytotoxicity against human MCF7 cells by MTT assay
[4] = test system: Bel-7402; assay: Cytotoxicity against human Bel7402 cells by MTT assay
[5] = test system: HCT-8; assay: Cytotoxicity against human HCT8 cells by MTT assay

Measured: IC50

C=C1CC[C@]2(O)[C@H]([C@H](C(C)(C)O)CC[C@H]2C)[C@H]1O
> 10 µg/mL: [1] | [2] | [3] | [4] | [5]

CC(C)[C@@H]1CC[C@@H](C)[C@]2(O)CC[C@@](C)(O)[C@@H](O)[C@@H]12
> 10 µg/mL: [1] | [2] | [3] | [4] | [5]

CC1=CC[C@@]2(O)[C@H](C)CC[C@@H](C(C)C)[C@@H]2C1=O
> 10 µg/mL: [1] | [2] | [3] | [4] | [5]

CC(C)[C@@H]1CC[C@@H](C)[C@]2(O)CCC(C=O)=C[C@@H]12
> 10 µg/mL: [1] | [2] | [3] | [4] | [5]

CC1=CC[C@]2(O)[C@@H]([C@@H]1O)[C@H](C(C)C)CC[C@H]2C
> 10 µg/mL: [1] | [2] | [3] | [4] | [5]

CC1=CC[C@]2(O)[C@@H]([C@H]1O)[C@H](C(C)C)CC[C@H]2C
> 10 µg/mL: [1] | [2] | [3] | [4] | [5]

C=C1CC[C@]2(O)[C@@H]([C@@H]1O)[C@H](C(C)C)CC[C@H]2C
> 10 µg/mL: [1] | [2] | [3] | [4] | [5]
